One series concerns Human PBMCs. In words: TNFα release from LPS-stimulated PBMCs. The series is classed as cell-based. Particulars: LPS 10 μg/ml, RTD-1 0.1-10 μg/ml, supernatants after 3 days. The procedure:
Human PBMCs were prepared by the dextran sedimentation method and resuspended in Iscove's Modified Dulbecco's Medium containing 10% fetal bovine serum. […] Under conditions shown in A-C, aliquots containing 0.5−1×10^6 PBMCs were incubated with 10 μg/ml lipopolysaccharide (LPS) for 2 hours at 37° C., 5% CO2, then treated with RTD-1 (A: 10 μg/ml, B: 1 μg/ml, C, 0.1 μg/ml). Under conditions shown in D-E, a mixture of LPS (10 μg/ml) and RTD-1 (D: 10 μg/ml, E: 1 μg/ml, F: 0.1 μg/ml) were incubated for 2 hours at 37° C. then added to PBMC. Under conditions shown in G-L, control incubations were performed in which PBMCs were incubated with either 10 μg/ml LPS (G), 1 μg/ml phorbol 12-myristate 13-acetate (PMA) (H), varying concentrations of RTD-1 (1:10 μg/ml, J:1 μg/ml, K:0.1 μg/ml), or in media (L). Supernatants from these incubations were harvested after 3 days and soluble TNF was measured using Human TNF ELISA Kit II (BD Biosciences, San Diego). Results were obtained from duplicate incubations.

In series [1] the test system is S. aureus and E. coli ML35. Description: Antimicrobial activities in physiological salts and serum. The class given is cell-based. Conditions: NaCl, CaCl2, MgCl2; 10% human serum. As for the experimental part: (§1) The microbicidal activities of various theta defensin peptides were determined by incubating 2×10^6 CFU/ml with peptides (0-100 μg/ml) in 50 μl of low salt diluents: 10 mM PIPES buffer containing 5 mM glucose, pH 7.4, 10 mM Tris-HCl, pH 7.4, or 10 mM sodium phosphate, pH 7.4, or the same diluents supplemented with 25 to 154 mM NaCl. After 2 h incubation at 37° C., the cell suspensions were diluted 1:50 with 10 mM sodium phosphate buffer, pH 7.4, and exponentially spread with an Autoplate 400 (Spiral Biotech, MD) onto trypticase soy agar (bacteria) or Sabouraud dextrose agar (fungi). After incubation at 37° C. for 18-48 h, colonies were counted and cell survival was expressed as CFU/ml.
(§2) Staphylocidal activities of theta defensins and protegrin were assayed in various buffers and salt concentrations. Log-phase bacteria were incubated for 2 h at 37° C. with increasing concentrations of the peptides (FIG. 9). Cells were incubated with increasing concentrations of RTD-1 (filled circles), RTD-2 (filled triangles), RTD-3 (filled squares), and PG-1 (filled diamonds) in 10 mM PIPES (FIG. 9A), 10 mM Tris-Cl (FIG. 9B), or 10 mM sodium phosphate (FIG. 9C), at pH 7.4, containing 154 mM NaCl.
The bactericidal activities of theta defensins against E. coli in various physiological salt concentrations were also tested. […] Killing of E. coli ML35 was measured by incubating increasing concentrations of RTD-1 (filled circles), RTD-2 (filled triangles), RTD-3 (filled squares), and PG-1 (filled diamonds) with log-phase E. coli ML35 in 10 mM PIPES, pH 7.4, with CaCl2 (1.2 mM) (FIG. 10A), MgCl2 (0.8 mM) (FIG. 10B), or in control incubations where the divalent salts were omitted (FIG. 10C).
The activities of theta defensins in the presence of serum were also analyzed. […] Dose-dependent bactericidal activities of RTD-1 (filled circles), RTD-2 (filled triangles), RTD-3 (filled squares), and PG-1 (filled diamonds) against bacteria were determined in 10 mM PIPES, pH 7.4, containing 10% normal (for S. aureus) or heat-inactivated (for E. coli) human serum.

A further series concerns LPS-stimulated cells. Conditions: cited from earlier work.
Series [2] has as its system Escherichia coli ML35, Staphylococcus aureus 502A, Candida albicans, Cryptococcus neoformans. Description: Microbicidal and agar diffusion assays in low salt diluents. The series is classed as cell-based, bacteria and fungi. Conditions: low salt conditions, absence of physiologic salt. As for the experimental part:
The antimicrobial activities of various theta defensin compounds were measured using a diffusion assay against bacteria (Staphylococcus aureus 502a and Escherichia coli ML35) and fungi (Candida albicans 16820 and Cryptococcus neoformans 271A). The antimicrobial activities were determined in an agar diffusion assay as described previously (Osapay et al., J. Biol. Chem. 275:12017-12022 (2000)). Briefly, 10-μl wells were bored in a 9-cm^2 plate of agarose, buffered with 10 mM 1,4-piperazine-bis(ethanesulfonic acid) (PIPES), pH 7.4, containing 5 mM glucose, and seeded with 1×10^6 mid-log phase cells. Five-μl aliquots of each peptide, dissolved in 0.01% acetic acid (HOAc) at 10-300 μg/ml, were added to each well. After incubation at 37° C. for 2 h, the seeded agar was overlaid with molten agarose containing 6% trypticase soy broth (for bacteria) or Sabouraud dextrose broth (for fungi). Plates were incubated at 37° C. for 18-24 h, and antimicrobial activity was determined by measuring the diameter of clearing around each well.
as §1
FIGS. 2-4 show the results of microbicidal assays performed with various theta defensins and protegrin. Cells were incubated for 2 hours at 37° C. in 10 mM PIPES, pH 7.4, and 5 mM glucose, as described above.
FIGS. 5-8 show antimicrobial activities of various theta defensins as measured using the diffusion assay. […]
For orientation: A growth-free zone around the sample is the usual read-out of agar diffusion tests.

Series [3] concerns various theta defensin peptides.
In another series the test system is Staphylococcus aureus. In words: Staphylocidal activity in buffers containing physiologic NaCl. The class given is cell-based. Conditions: 154 mM NaCl, pH 7.4, 2 h at 37° C. As for the experimental part: as §1, §2
Series [4] deals with primary R5 strain of HIV-1. Description: Anti-HIV activity in PHA-stimulated PBMCs (p24 ELISA). The series is classed as cell-based. Particulars: day 7 of infection. The procedure:
Phytohaemagglutinin (PHA)-stimulated peripheral blood mononuclear cells (PBMCs), pre-incubated for 3 hours with serial dilutions of defensins, were mixed with 1000 TCID50 (50% infectivity of susceptible cells in tissue culture) of a primary R5 strain of HIV-1. Two hours later, the cells were washed, and fresh medium containing defensin and 20 U/ml of IL-2 was added. Five days after infection, 50% of the medium was removed and replaced with fresh medium containing defensin and IL-2. On day 7 of infection, the levels of HIV protein p24 in supernatant fluid were measured by ELISA. […] The active β-defensin was human β-defensin-3.
In general terms: In an ELISA, binding on a coated surface is turned into a signal by an enzyme label.

“Also recorded” adds a separate entry of the source. Bridges are numbered along the chain shown (N, C = ends).

On to “Gly-Phe-Cys-Arg-Cys-Leu-Cys-Arg-Arg-Gly-Val-Cys-Arg-Cys-Ile-Cys-Thr-Arg (cyclo(GFCRCLCRRGVCRCICTR); disulfide 7-12, 5-14, 3-16) [RTD-1, Rhesus theta defensin, macrocyclic 18-amino acid antimicrobial peptide, heterodimer of RTD1a and RTD1b nonapeptides]”, for which the “extracellular release of TNFα” value with Human PBMCs is “modulates extracellular release of TNF-a”. The “activity in the presence of physiological salts and serum” value in series [1] is “active”. Besides, the “levels of pro-inflammatory cytokines (TNF-α, IL-1β)” value with LPS-stimulated cells is given as “Reduction”. Further, in series [2], the “antimicrobial activity in vitro” value is “nearly indistinguishable”.

For Purified β-galactosidase, the “β-Galactosidase activity measured as the rate of o-nitrophenyl-beta-D-galactopyranoside (ONPG) hydrolysis, compared to that obtained in the absence of peptide” value in series [3] is given as “various theta defensins inhibited β-galactosidase enzymatic activity”.

Take “RTD-2: naturally occurring theta defensin, homodimer of nine-residue sequences (SEQ ID NO:4, FIG. 1) (cyclo(GFCRCICTRGFCRCICTR); not fully specified (bridges); also: homodimer of nine-residue sequences, cyclic; listed as Macaca mulatta)”: in series [1], the “activity in the presence of physiological salts and serum” value is recorded as “active”. Also, in the series with Staphylococcus aureus, the “antimicrobial activity in the presence of salt compared to RTD-1” value is “more potent antimicrobial activity; also recorded: higher antimicrobial activity than RTD-1”. Further, the “antimicrobial activity in vitro” value in series [2] is reported as “nearly indistinguishable”.

With “RTD-3: naturally occurring theta defensin, homodimer of nine-residue sequences (SEQ ID NO:6, FIG. 1) (cyclo(GVCRCLCRRGVCRCLCRR); not fully specified (bridges); also: homodimer of nine-residue sequences, cyclic; listed as Macaca mulatta)”, in series [1], the “activity in the presence of physiological salts and serum” value was “active”. Further, the “antimicrobial activity in the presence of salt compared to RTD-1” value with Staphylococcus aureus was “more potent antimicrobial activity; also recorded: higher antimicrobial activity than RTD-1”. The “antimicrobial activity in vitro” value in series [2] is on record as “nearly indistinguishable”.

For “human β-defensin-3: human β-defensin-3, the active β-defensin in the anti-HIV assay (GIINTLQKYYCRVRGGRCAVLSCLPKEEQIGKCSTRGRKCCRRKK; Beta-defensin 103; UniProt P81534 23-67, looked up)”, the “anti-HIV activity (HIV protein p24 in supernatant)” value in series [4] is recorded as “active”.
